Results as given in US9441263B2, “Ribosomal targets for antibiotic drug discovery” (Cornell University, priority 2011, dated 2016).
“Also recorded” adds a separate entry of the source. Starred links: 1 amine or outer side, 2 acyl side, 3 side chain; linkers in the order of their positions; H or OH if unused. Positions of bridges follow the written chain, without caps; N, C: chain ends. Non-standard residues stand in square brackets, D forms with d. Residues, ends and D or L forms follow the SMILES beside them. *: point of attachment. X1 = NC1=N[C@@H]([C@H](N[*:1])C(=O)[*:2])C[C@H](O)N1; ΔAla(Z-3-ureido) = NC(=O)N/C=C(\N)C(=O)O; β3hOrn = NCCC[C@H](N)CC(=O)*; Dap = NC[C@H](N)C(=O)O

What was measured:
[1] = test system: Cy3-S13 / Cy5-L1 (T202C) ribosome complexes; experiment: Single-molecule L1-S13 FRET assay (ribosome conformational states); type: biochemical, E. coli
Description: Generation of Site-Specifically Labeled 30S Subunits and 50S Subunits.
Ribosomal protein S13 was PCR-cloned from E. coli strain K12 genomic DNA into the pPROEX HTb vector with a TEV-cleavable His6-tag and a 12-residue peptide encoding the S6 epitope for the Sfp phosphopantetheinyl transferase reaction (Yin 2006), fused at the N terminus. Following transformation of this plasmid into an E. coli ΔS13 knockout strain (Cukras 2005), cells were cultured and ribosomes were harvested as previously described (Wang 2011). Pure 30S subunits were isolated via sucrose gradient centrifugation in a low magnesium buffer (20 mM HEPES pH 7.5, 50 mM KCl, 10 mM NH4Cl, 0.5 mM EDTA, 6 mM BME, 1 mM MgCl2). 30S subunits containing Sfp-tagged S13 were isolated from this population by cobalt affinity chromatography (Clontech). Subsequently, the Sfp tag was enzymatically labeled and the His6-tag was enzymatically removed in a buffer containing 20 mM HEPES, pH 7.5, 100 mM KCl, 10 mM MgCl, and 6 mM BME. 20 μM N-Sfp-S13 30S subunits, 5 μM TEV protease, 250 μM Cy3-CoA and 25 μM Sfp were incubated for 24 h at 18° C. Sfp enzyme, TEV protease and unbound Cy3-CoA were then removed by filtration over a 100K membrane (Millipore). Prior to 70S complex formation, ribosomes were buffer exchanged into Tris-polymix buffer (Munro 2010c). 50S subunits labeled with Cy5-L1 (T202C) were prepared and purified as previously described (Munro 2010b).
Preparation of L1-S13 FRET Ribosome Complexes with tRNA^fMet or tRNA^Phe in the P Site.
Cy3-S13 30S and Cy5-L1 50S subunits were heat activated at 42° C. for 10 min in Tris-polymix Mg^2+ buffer and ribosomes were then initiated with fMet-tRNA^fMet or NAc-Phe-tRNA^Phe as previously described (Munro 2010c).
Single-Molecule L1-S13 FRET Assay.
All single-molecule FRET experiments were performed at room temperature in Tris-Polymix with 5 mM Mg^2+ buffer as previously described (Wang 2011), where oxygen scavenging and triplet-state quenching systems were employed (Dave 2009). Following surface immobilization (Munro 2007), the ribosome-bound, P-site tRNA was deacylated by incubation with 2 mM puromycin for 10 min at room temperature. The smFRET data were acquired by directly exciting the Cy3 fluorophore at 532 nm (LaserQuantum) while Cy3 and Cy5 intensities were simultaneously recorded in Metamorph (Molecular Devices) with 40 ms integration time. The data were analyzed in MATLAB (MathWorks) and plotted in Origin (OriginLab) as previously described (Munro 2007).

[2] = test system: wild-type ribosomes; experiment: Single-molecule FRET tRNA incorporation (aa-tRNA selection) assay, wild-type ribosomes; type: biochemical, E. coli
Description: (§1) Single-Molecule FRET tRNA Incorporation Assay.
The process of tRNA selection on the ribosome was monitored using single-molecule FRET by stropped-flow injection of a 10 nM solution of ternary complex (EF-Tu(GTP)·aa-tRNA) containing Phe-tRNA^Phe (Cy5-acp^3U47) to surface-immobilized ribosome complexes containing deacylated tRNA^fMet (Cy3-s^4U8) in the P site as previously described (Geggier 2010). Fluorescence and FRET traces were extracted from video and selected for analysis using automated analysis software implemented in MATLAB (MathWorks) using the segmental k-means algorithm (Qin, 1996). Complete accommodation of Phe-tRNA^Phe into the A site was marked by the first observation of a 400 ms dwell in a high ([…]) FRET state, structurally assigned to the “classical” pre-translocation complex configuration through previous investigations (Geggier 2010). Individual experiments, in which approximately 100 accommodation events were obtained, were performed in triplicate. The mean extent of accommodation and standard deviations are plotted as a function of time. Wild type and mutant ribosomes for these experiments were purified as previously described (Feldman 2010).

[3] = test system: A1408G mutant ribosomes; experiment: Single-molecule FRET tRNA incorporation (aa-tRNA selection) assay, A1408G mutant ribosomes; type: biochemical, E. coli
From the text: (§2) Purification of A1408G Ribosomes.
(§3) Wild-type ribosomes and ribosomes bearing A1408G mutation were purified from a Δ7prrn E. coli MG1655 strain (RecA-) for single-molecule translocation and recycling experiments. The A1408G neomycin resistance mutation was introduced into a […] (KanR, SpecR) plasmid containing an rrnB operon (Komoda 2006) using Quickchange II site-directed mutagenesis (Stratagene). Wild-type and A1408G containing pRB102 plasmids (Komoda 2006) were then swapped into a Δ7prrn E. coli MG1655 (pKK3535, AmpR; ptRNA67, SpecR) strain. Tightly-coupled 70S ribosomes were purified from these strains in Tris-polymix buffer as previously described (Munro 2007).
as §1
The process of tRNA selection on the ribosome was monitored using single-molecule FRET by stropped-flow injection of a 10 nM solution of ternary complex (EF-Tu(GTP)·aa-tRNA) containing Phe-tRNA^Phe (Cy5-acp^3U47) to surface-immobilized ribosome complexes containing deacylated tRNA^fMet (Cy3-s^4U8) in the P site as previously described (Geggier 2010). Fluorescence and FRET traces were extracted from video and selected for analysis using automated analysis software implemented in MATLAB (MathWorks) using the segmental k-means algorithm (Qin, 1996). […]

[4] = test system: wild-type pre-translocation ribosome complexes; experiment: Single-molecule translocation assay (EF-G catalyzed), wild-type ribosome complexes; type: biochemical, E. coli; details: wild-type ribosomes
Description: (§4) Single-Molecule Translocation Assay.
(§5) Fluorescence-based, single-molecule translocation assays were carried out as previously described (Munro 2010c) on either wild-type or A1408G mutant pre-translocation ribosome complexes. Experiments were performed in Tris-polymix buffer (pH 7.5, 5 mM Mg(OAc)2) and analyzed as previously described (Munro 2010c; Wang 2011), plotting the fraction of translocating molecules as a function of time.

[5] = test system: A1408G mutant pre-translocation ribosome complexes; experiment: Single-molecule translocation assay (EF-G catalyzed), A1408G ribosome complexes; type: biochemical, E. coli
From the text: as §2, §3, §4, §5

[6] = test system: wild-type 70S ribosome complexes; experiment: Single-molecule ribosome recycling assay (loss of Cy5-labeled L1 fluorescence), wild-type; type: biochemical, E. coli; details: wild-type ribosomes; neomycin 0.1-100 μM
From the text: (§6) As described in the examples, this invention provides single-molecule assays for ribosome recycling which comprises surface-immobilizing a ribosome labeled on the 50S subunit in the presence of tRNA, RRF and EF-G under translation conditions; and monitoring changes in the signal from the label, wherein a change in the signal indicates recycling or lack thereof. For example, this assay can be conducted in solution or using smFRET like imaging techniques (following fluorescence decay), with the label on the ribosome being a fluorophore.
(§7) Single-Molecule Fluorescence Experiments.
(§8) All single-molecule fluorescence experiments were performed at room temperature in an MES-Polymix buffer that resembled the crystallization condition (50 mM MES, pH 6.5, 5.0 mM MgCl2, 350 mM NH4Cl, 5.0 mM putrescine, 5.0 mM spermidine, 5 mM (3-mercaptoethanol and 0.5 mM EDTA). Oxygen scavenging and triplet-state quenching systems used were as previously described (Dave 2009). The smFRET data were acquired with Metamorph (Molecular Device), and analyzed in MATLAB (Mathwork) and QuB (www.qub.buffalo.edu) as previously described (Munro 2010a,b). Subunit release was monitored by directly exciting the Cy5 fluorophore within surface-immobilized ribosome complexes (Coherent) at 10 mW laser power. […] Changes in fluorescence intensity were analyzed and plotted in Origin (OriginLab).

[7] = test system: A1408G mutant ribosomes; experiment: Single-molecule ribosome recycling assay (loss of Cy5-labeled L1 fluorescence), A1408G; type: biochemical, E. coli; details: neomycin 0.1-100 μM
From the text: as §6
Purification of A1408G Ribosomes. […]
as §7, §8

[8] = test system: wild-type pre-translocation ribosome complexes; details: Feldman 2010; cited from earlier work
[9] = deacylated tRNA^fMet in the P site, no A-site tRNA, EF-G with GDPNP

NCCC[C@H](N)CC(=O)N[C@H]1CNC(=O)[C@H]([C@H]2C[C@H](O)NC(N)=N2)NC(=O)/C(=C/NC(N)=O)NC(=O)[C@H](CO)NC(=O)[C@H](CO)NC1=O [viomycin] (β3hOrn-[Dap]SS[ΔAla(Z-3-ureido)][X1]; lactam 1-C)
FRET state stabilized (L1-S13) [1, 9]: high-FRET state was also favored; also recorded: rotated state

neomycin
selection of cognate tRNA ([2]; 100 nM neomycin, cognate (UUC) codon): negligible effects | rates of near-cognate aa-tRNA accommodation ([2]; 100 nM neomycin, near-cognate (UCU) codon): substantially increased | selection of both cognate and near-cognate tRNA ([2]; 20 μM neomycin): significantly attenuated | miscoding effects / incorporation of near-cognate tRNA ([3]; 100 nM neomycin): reduced; also recorded: almost entirely suppressed | selection (incorporation) of cognate and near-cognate tRNA ([3]; 20 μM neomycin): both reduced; also recorded: Inhibition persisted | concentration at which substrate translocation is blocked [4]: above 1 μM | EF-G catalyzed translocation ([5]; A1408G mutant background, neomycin 0.01-100 μM, normalized to no drug): inhibits EF-G catalyzed translocation in a concentration dependent manner | concentration at which substrate translocation is blocked ([5]; A1408G ribosomes): above 1 μM | ribosome recycling mediated by RRF and EF-G [6]: inhibited ribosome recycling | ribosome recycling catalyzed by RRF, EF-G and GTP [7]: inhibits the process of ribosome recycling catalyzed by RRF, EF-G and GTP in a concentration-dependent manner; also recorded: inhibited ribosome recycling | ribosome conformation stabilized (L1-S13 FRET) ([1]; figure title, tRNA^fMet or tRNA^Phe in the P site): stabilizes an intermediate conformation of the ribosome | FRET state stabilized (L1-S13) ([1]; higher neomycin concentrations (>1 μM), deacylated tRNA^fMet in the P site): stabilized a ribosome configuration exhibiting an intermediate FRET value | FRET state favored (L1-S13) ([1]; low neomycin concentrations (<100 nM), deacylated tRNA^fMet in the P site): low-FRET state was favored | neomycin concentration inhibiting translocation as potently as viomycin [8]: higher than 100 nM

RRF: ribosome recycling factor, purified from E. coli, C-terminal hexa-histidine tagged
FRET state stabilized (L1-S13) [1, 9]: high-FRET state was stabilized; also recorded: high-FRET rotated state

EF-G: GTPase elongation factor-G
FRET state stabilized (L1-S13) [1, 9]: high-FRET state was stabilized; also recorded: high-FRET, rotated state
